Measurements published in PubChem BioAssay AID1963967 (Molecular Pharmacology Branch, DTP, NCI, 2024).
Values joined by “and” are separate entries in the source; they are usually repeats but may differ in a detail not shown here. Equal entries are not always repeated.

Test system: 855422-203-R-J1-PDC spheroids with HUVEC/MSC, viability
Experiment: Anticancer human tumor 855422-203-R-J1-PDC patient-derived bladder carcinoma cell line growth inhibition [PI3K]
Conditions: for viability, T/C: stronger effect = lower value; active means viability on the fitted dose curve at most 10% of control; inactive means the rest
How it was run: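 Stroma-containing spheroids: tumor line, pooled-donor HUVEC, hMSC. Treatments: targeted agents with PI3K inhibitors. Dosing: clinically relevant, half-log spacing, 10 microM ceiling without known Cmax. Read-out: cell viability.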

[1] = curve of first compound, second compound 0.0316 µM
[2] = curve of first compound, second compound 0.1 µM
[3] = curve of first compound, second compound 0.316 µM
[4] = curve of first compound, second compound 1 µM
[5] = curve of first compound, second compound 3.16 µM
[6] = curve of first compound, second compound 10 µM
[7] = second compound 0.0316 µM, first compound 0.0316 µM
[8] = second compound 0.0316 µM, first compound 0.1 µM
[9] = second compound 0.1 µM, first compound 0.0316 µM
[10] = second compound 0.1 µM, first compound 0.1 µM
[11] = second compound 0.316 µM, first compound 0.0316 µM
[12] = second compound 0.316 µM, first compound 0.1 µM
[13] = second compound 1 µM, first compound 0.0316 µM
[14] = second compound 1 µM, first compound 0.1 µM
[15] = second compound 3.16 µM, first compound 0.0316 µM
[16] = second compound 3.16 µM, first compound 0.1 µM
[17] = second compound 10 µM, first compound 0.0316 µM
[18] = second compound 10 µM, first compound 0.1 µM
[19] = second compound 0.0316 µM, first compound 0.316 µM
[20] = second compound 0.0316 µM, first compound 1 µM
[21] = second compound 0.0316 µM, first compound 3.16 µM
[22] = second compound 0.0316 µM, first compound 10 µM
[23] = second compound 0.1 µM, first compound 0.316 µM
[24] = second compound 0.1 µM, first compound 1 µM
[25] = second compound 0.1 µM, first compound 3.16 µM
[26] = second compound 0.1 µM, first compound 10 µM
[27] = second compound 0.316 µM, first compound 0.316 µM
[28] = second compound 0.316 µM, first compound 1 µM
[29] = second compound 0.316 µM, first compound 3.16 µM
[30] = second compound 0.316 µM, first compound 10 µM
[31] = second compound 1 µM, first compound 0.316 µM
[32] = second compound 1 µM, first compound 1 µM
[33] = second compound 1 µM, first compound 3.16 µM
[34] = second compound 1 µM, first compound 10 µM
[35] = second compound 3.16 µM, first compound 0.316 µM
[36] = second compound 3.16 µM, first compound 1 µM
[37] = second compound 3.16 µM, first compound 3.16 µM
[38] = second compound 3.16 µM, first compound 10 µM
[39] = second compound 10 µM, first compound 0.316 µM
[40] = second compound 10 µM, first compound 1 µM
[41] = second compound 10 µM, first compound 3.16 µM
[42] = second compound 10 µM, first compound 10 µM
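Further: agents incubated with spheroids for one week before read-out.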
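Wherever viability, T/C is given: 100% = DMSO vehicle-treated control wells.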

Cn1ncnc1[C@H]1c2n[nH]c(=O)c3cc(F)cc(c23)N[C@@H]1c1ccc(F)cc1 + CC(Nc1ncnc2nc[nH]c12)c1cc2cccc(Cl)c2c(=O)n1-c1ccccc1
inactive: viability, T/C (second compound 0.0316 µM, first compound 0.000316 µM) 107% | viability, T/C (second compound 0.0316 µM, first compound 0.001 µM) 98% | viability, T/C (second compound 0.0316 µM, first compound 0.00316 µM) 106% | viability, T/C (second compound 0.0316 µM, first compound 0.01 µM) 97.8% | viability, T/C [7] 109% | viability, T/C [8] 100% | viability, T/C (second compound 0.1 µM, first compound 0.000316 µM) 121% | viability, T/C (second compound 0.1 µM, first compound 0.001 µM) 104% | viability, T/C (second compound 0.1 µM, first compound 0.00316 µM) 113% | viability, T/C (second compound 0.1 µM, first compound 0.01 µM) 101% | viability, T/C [9] 111% | viability, T/C [10] 104% | viability, T/C (second compound 0.316 µM, first compound 0.000316 µM) 106% | viability, T/C (second compound 0.316 µM, first compound 0.001 µM) 107% | viability, T/C (second compound 0.316 µM, first compound 0.00316 µM) 121% | viability, T/C (second compound 0.316 µM, first compound 0.01 µM) 102% | viability, T/C [11] 110% | viability, T/C [12] 107% | viability, T/C (second compound 1 µM, first compound 0.000316 µM) 106% | viability, T/C (second compound 1 µM, first compound 0.001 µM) 107% | viability, T/C (second compound 1 µM, first compound 0.00316 µM) 110% | viability, T/C (second compound 1 µM, first compound 0.01 µM) 104% | viability, T/C [13] 104% | viability, T/C [14] 104% | viability, T/C (second compound 3.16 µM, first compound 0.000316 µM) 96.6% | viability, T/C (second compound 3.16 µM, first compound 0.001 µM) 92% | viability, T/C (second compound 3.16 µM, first compound 0.00316 µM) 97.9% | viability, T/C (second compound 3.16 µM, first compound 0.01 µM) 105% | viability, T/C [15] 105% | viability, T/C [16] 104% | viability, T/C (second compound 10 µM, first compound 0.000316 µM) 88.3% | viability, T/C (second compound 10 µM, first compound 0.001 µM) 85% | viability, T/C (second compound 10 µM, first compound 0.00316 µM) 78.4% | viability, T/C (second compound 10 µM, first compound 0.01 µM) 87% | viability, T/C [17] 89.5% | viability, T/C [18] 82.3%
> 100 nM: IC50 [1] | IC50 [2] | IC50 [3] | IC50 [4] | IC50 [5] | IC50 [6]

C=CC(=O)N1CCN(c2nc(=O)n(-c3c(C)ccnc3C(C)C)c3nc(-c4c(O)cccc4F)c(F)cc23)C(C)C1 (centres undefined) + CC(Nc1ncnc2nc[nH]c12)c1cc2cccc(Cl)c2c(=O)n1-c1ccccc1
> 10000 nM: IC50 [1] | IC50 [2] | IC50 [3] | IC50 [4] | IC50 [5] | IC50 [6]
inactive: viability, T/C [7] 107% | viability, T/C [8] 91.1% | viability, T/C [19] 112% | viability, T/C [20] 95% | viability, T/C [21] 128% | viability, T/C [22] 133% | viability, T/C [9] 102% | viability, T/C [10] 90.7% | viability, T/C [23] 109% | viability, T/C [24] 110% | viability, T/C [25] 119% | viability, T/C [26] 129% | viability, T/C [11] 97.5% | viability, T/C [12] 92% | viability, T/C [27] 98.3% | viability, T/C [28] 121% | viability, T/C [29] 122% | viability, T/C [30] 122% | viability, T/C [13] 100% | viability, T/C [14] 98.7% | viability, T/C [31] 112% | viability, T/C [32] 117% | viability, T/C [33] 122% | viability, T/C [34] 110% | viability, T/C [15] 102% | viability, T/C [16] 102% | viability, T/C [35] 104% | viability, T/C [36] 115% | viability, T/C [37] 116% | viability, T/C [38] 101% | viability, T/C [17] 108% | viability, T/C [18] 90.4% | viability, T/C [39] 104% | viability, T/C [40] 102% | viability, T/C [41] 115% | viability, T/C [42] 105%

CNC(=O)c1ccc(N2C(=S)N(c3ccc(C#N)c(C(F)(F)F)c3)C(=O)C2(C)C)cc1F + Cc1nc(NC(=O)N2CCCC2C(N)=O)sc1-c1ccnc(C(C)(C)C(F)(F)F)c1
inactive: viability, T/C [7] 109% | viability, T/C [8] 95.3% | viability, T/C [19] 99.1% | viability, T/C [20] 87.4% | viability, T/C [21] 80.7% | viability, T/C [22] 74.5% | viability, T/C [9] 99.7% | viability, T/C [10] 97.8% | viability, T/C [23] 96.7% | viability, T/C [24] 84.8% | viability, T/C [25] 88.1% | viability, T/C [26] 79% | viability, T/C [11] 98.1% | viability, T/C [12] 83.3% | viability, T/C [27] 96.7% | viability, T/C [28] 87.6% | viability, T/C [29] 86.8% | viability, T/C [30] 77.4% | viability, T/C [13] 72.5% | viability, T/C [14] 75.7% | viability, T/C [31] 73.7% | viability, T/C [32] 76.8% | viability, T/C [33] 82.5% | viability, T/C [34] 61.8% | viability, T/C [15] 47.4% | viability, T/C [16] 49.6% | viability, T/C [35] 44.6% | viability, T/C [36] 51.5% | viability, T/C [37] 54.1% | viability, T/C [38] 36.7% | viability, T/C [17] 24.1% | viability, T/C [18] 27.6% | viability, T/C [39] 24.7% | viability, T/C [40] 31.2% | viability, T/C [41] 29.4% | viability, T/C [42] 16.8%
31.6 nM: IC50 [5]
< 31.6 nM: IC50 [6]
> 10000 nM: IC50 [1] | IC50 [2] | IC50 [3] | IC50 [4]

Cn1ncc(Cl)c1-c1cc(C(=O)NC(CN)Cc2cccc(F)c2)sc1Cl (centres undefined) + COc1c(OCCCN2CCOCC2)ccc2c3n(c(=NC(=O)c4cnc(N)nc4)nc12)CCN3
< 31.6 nM: IC50 [2] | IC50 [3] | IC50 [4]
624 nM: IC50 (curve of first compound, second compound 0.01 µM)
728 nM: IC50 (curve of first compound, second compound 0.00316 µM)
inactive: viability, T/C (second compound 0.00316 µM, first compound 0.0316 µM) 88.5% | viability, T/C (second compound 0.00316 µM, first compound 0.1 µM) 73.7% | viability, T/C (second compound 0.00316 µM, first compound 0.316 µM) 63.2% | viability, T/C (second compound 0.00316 µM, first compound 1 µM) 45.5% | viability, T/C (second compound 0.00316 µM, first compound 3.16 µM) 26.9% | viability, T/C (second compound 0.01 µM, first compound 0.0316 µM) 77.8% | viability, T/C (second compound 0.01 µM, first compound 0.1 µM) 69.8% | viability, T/C (second compound 0.01 µM, first compound 0.316 µM) 62% | viability, T/C (second compound 0.01 µM, first compound 1 µM) 42.7% | viability, T/C (second compound 0.01 µM, first compound 3.16 µM) 19.6% | viability, T/C [7] 60.7% | viability, T/C [8] 54.4% | viability, T/C [19] 45.2% | viability, T/C [20] 29.4% | viability, T/C [21] 13% | viability, T/C [9] 27.6% | viability, T/C [10] 27.3% | viability, T/C [23] 19.7% | viability, T/C [24] 15.4%
active: viability, T/C (second compound 0.00316 µM, first compound 10 µM) 6.73% | viability, T/C (second compound 0.01 µM, first compound 10 µM) 5.83% | viability, T/C [22] 3.13% | viability, T/C [25] 7.63% | viability, T/C [26] 0.88% | viability, T/C [11] 8.42% | viability, T/C [12] 7.12% | viability, T/C [27] 8.39% | viability, T/C [28] 7.12% | viability, T/C [29] 4.22% | viability, T/C [30] 0.34% | viability, T/C [13] 3.34% | viability, T/C [14] 4.22% | viability, T/C [31] 3.37% | viability, T/C [32] 4.04% | viability, T/C [33] 1.54% | viability, T/C [34] 1.32%
178 nM: IC50 [1]

CCN1CCN(Cc2ccc(Nc3ncc(F)c(-c4cc(F)c5nc(C)n(C(C)C)c5c4)n3)nc2)CC1
> 1000 nM: IC50 (curve of compound)
inactive: viability, T/C (compound 0.00316 µM) 111% [middle of 4 runs] | viability, T/C (compound 0.0316 µM) 107% [middle of 4 runs] | viability, T/C (compound 0.1 µM) 83.3% [middle of 4 runs] | viability, T/C (compound 0.316 µM) 71.9% and 69.7% (2×) and 83.9% | viability, T/C (compound 1 µM) 60.2% [middle of 4 runs]
